System: SH-SY5Y
Experiment: Neuroprotection against rotenone/oligomycin A-induced cell death in human SH-SY5Y cells at 1 uM preincubated for 24 hrs followed by rotenone/oligomycin A addition measured after 24 hrs by MTT assay relative to control
Assay type: functional

Compound: Cc1[nH]nc2c1C(c1cccnc1)C(C#N)=C(N)O2 (stereo unspecified)
- Activity: 57.9%

Source: ChEMBL document CHEMBL4270556, “Current progress on antioxidants incorporating the pyrazole core” (Eur J Med Chem, 2018)
